Values of other authors, collected in paper PMC9050811 (RSC Advances, 2020).

Experiments:
MTB = conditions: cited from earlier work
DNA supercoiling = conditions: read-out: IC50 in the DNA supercoiling assay; cited from earlier work
MTB H37Rv = conditions: cited from earlier work

| SMILES | MTB MIC (MTB) [µM] | IC50 (DNA supercoiling) [nM] | MTB MIC against H37Rv (MTB H37Rv) [µg/mL] |
| --- | --- | --- | --- |
| COc1cnc2ccc(=O)n(CCN3CCN(C(=O)Nc4ccc([N+](=O)[O-])cc4)CC3)c2c1 [4-(2-(7-methoxy-2-oxo-1,5-naphthyridin-1-(2H)-yl)ethyl)-N-(4-nitrophenyl)piperazine-1-carboxamide] | 3.45 | 290 |  |
| O=S(=O)(c1ccccc1)n1cc(CN2CCN(c3nc4ccccc4c4ccccc34)CC2)nn1 [G, 6-(4-((1-(phenylsulfonyl)-1H-1,2,3-triazol-4-yl)methyl)piperazin-1-yl)phenanthridine] |  |  | 1.56 |
| c1ccc(N2CCN(c3nc4ccccc4c4ccccc34)CC2)nc1 [H, 6-(4-(pyridin-2-yl)piperazin-1-yl)phenanthridine] |  |  | 1.56 |
| O=c1nc(N2CCN(C(=S)Nc3ccc(Cl)cc3)CC2)sc2ccc([N+](=O)[O-])cc12 [N-(4-chlorophenyl)-4-(6-nitro-4-oxo-4H-benzo[e][1,3]thiazin-2-yl)piperazine-1-carbothioamide] | 4.41 | 510 |  |
